# Counter-ions that a name gives are not always drawn. Like-named read-outs stand apart in the source and are kept apart here.
# Columns and labels:
# Acute toxicity in mice = test: Acute toxicity in mice; set-up: species or system Swiss NMRI mice; settings: mouse, in vivo; for LD50 at 240 h: 10 days observation, read-out: DL50
# From the text: Swiss NMRI mice having an average weight of 20±2 g, subdivided in groups of 10 animals (5 females and 5 males) were used for each dose and for each method of administration.
# The methods of administration were: oral by means of gastric probe, intramuscular and endovenous into the caudal vein.
# (§1) The observation time after administration was 10 days.
# [1] = tested on: granuloma from cotton pellets; test: Anti-inflammatory activity, granuloma induced by cotton pellets; type: in vivo, female albino rats of the Sprague Dawley strain; settings: for Average dry weight of the granuloma (average ± s.e.): in mg (unit assumed)
# Procedure: The test consists of evaluating the capacity of the substances under examination to inhibit the formation of granuloma following the subcutaneous implantation of extraneous bodies (in this case, cotton pellets). […] One group of animals was used as a control. […] After the subcutaneous implant of 2 cotton pellets each having a weight of 20 mg into the dorsal region, the animals were administered daily, for 4 consecutive days, with the substances under examination in the doses given above.
# Acute toxicity in rats = test: Acute toxicity in rats; set-up: species or system Sprague Dawley albino rats; settings: rat, in vivo; for LD50 at 240 h: 10 days observation, read-out: DL50
# From the text: Sprague Dawley albino rats having an average weight of about 150 g, subdivided into groups of 10 animals (5 males and 5 females) were used for each dose and for each method of administration.
# The methods of administration were: oral by means of a gastric probe, intramuscular and endovenous into the caudal vein.
# as §1
# mice-embryo fibroblast [2] = test: Stimulation of the production of tissue-bound GAG in mice-embryo fibroblast cultures, uptake of ^35 S; type: cell-based, mice (strain C57 BL/6 stCrl)
# Procedure: (§2) For this purpose, primary cultures of mice-embryo fibroblasts (strain C57 BL/6 stCrl) were prepared by mechanical and enzymatic dissociation (in Trypsin Versene mixture-Microbiological Associates) of the embryos taken from the mother on the 18th day of pregnancy. The culture medium is the Eagle medium modified by Dulbecco and supplemented with 15% of calf foetus serum. The incubation atmosphere consists of 5% of carbon dioxide in air at 37° C. 24 hours after innoculation, the medium is replaced by a new medium containing the drug under examination and the radioactive precursor (Na2^35 SO4) for the measurement of the synthesis both of soluble and tissue-bound GAG; the culture is left to incubate for a further 24 hours and then the culture medium (containing the soluble GAG) and fibroblasts (containing the tissue-bound GAG) are separated.
# (§3) The soluble GAG are isolated from the culture medium by precipitation with a solution of 5% trichloroacetic acid in ice-water while the fibroblast residues, containing the tissue-bound GAG, after repeated washings with physiological solutions, are dissolved in [sequence] or VERSENE.
# (§4) The quantity of ^35 S incorporated both in the soluble GAG and in the tissue-bound GAG are evaluated by the usual scintillation methods and expressed in cpm (counts per minute).
# (§5) The tests were carried out five times for each sample in order to allow the results to be evaluated statistically.
# mice-embryo fibroblast [3] = test: Stimulation of the production of soluble GAG in mice-embryo fibroblast cultures, uptake of ^35 S; type: cell-based, mice (strain C57 BL/6 stCrl)
# Procedure: as §2, §3, §4, §5
# physchem = settings: solid storage
# [4] = Solubility at 25° C. (w/v), saturated solutions, Elson-Morgan colorimetric method; type: physicochemical; settings: for solubility thermodynamic: w/v
# Procedure: Solubility (at 25° C.--w/v).
# This test was carried out by preparing saturated solutions of glucosamine-SP in various solvents and determining the concentration of the glucosamine by the Elson-Morgan colorimetric method mentioned above.
# pH of aqueous solution = type: physicochemical
# Procedure: The pH of an aqueous saturated solution of glucosamine-SP at 20° C. is 3.0±0.2.
# [5] = im, intramuscular, max. dose 3750 mg/kg
# [6] = iv, endovenous, max. dose 1875 mg/kg
# [7] = 375 mg/kg/os daily, 4 days (= 300 mg/kg glucosamine sulphate)
# [8] = 750 mg/kg/os daily, 4 days (= 600 mg/kg glucosamine sulphate)
smiles,measurement,setting,value
"N[C@H]1C(O)O[C@H](CO)[C@@H](O)[C@@H]1O (stereo partly shown) [Glucosamine-SP, mixed salt of glucosamine sulphate and sodium chloride]",LD50 at 240 h,"Acute toxicity in mice; im, intramuscular",> 3750 mg/kg
same,mortality at 240 h,Acute toxicity in mice; [5],0%
same,LD50 at 240 h,"Acute toxicity in mice; iv, endovenous",> 1880 mg/kg
same,mortality at 240 h,Acute toxicity in mice; [6],0%
same,LD50 at 240 h,Acute toxicity in mice; oral,> 6250 mg/kg
same,mortality at 240 h,"Acute toxicity in mice; oral, max. dose 6250 mg/kg",0%
same,Appearance,"15° C., 30% R.H., 0 days",1
same,Titre of glucosamine,"15° C., 30% R.H., 0 days",101.2%
same,Appearance,"15° C., 30% R.H., 7 days",1
same,Appearance,"15° C., 30% R.H., 15 days",1
same,Appearance,"15° C., 30% R.H., 30 days",1
same,Appearance,"15° C., 30% R.H., 60 days",1
same,Appearance,"15° C., 30% R.H., 120 days",1
same,Appearance,"15° C., 30% R.H., 360 days",1
same,Appearance,"15° C., 45% R.H., 0 days",1
same,Titre of glucosamine,"15° C., 45% R.H., 0 days",100.7%
same,Appearance,"15° C., 45% R.H., 7 days",1
same,Appearance,"15° C., 45% R.H., 15 days",1
same,Appearance,"15° C., 45% R.H., 30 days",1
same,Appearance,"15° C., 45% R.H., 60 days",1
same,Appearance,"15° C., 45% R.H., 120 days",1
same,Appearance,"15° C., 45% R.H., 360 days",1
same,Appearance,"15° C., 60% R.H., 0 days",1
same,Titre of glucosamine,"15° C., 60% R.H., 0 days",101.2%
same,Appearance,"15° C., 60% R.H., 3 days",1
same,Appearance,"15° C., 60% R.H., 6 days",1
same,Appearance,"15° C., 60% R.H., 12 days",1
same,Appearance,"15° C., 60% R.H., 24 days",1
same,Appearance,"15° C., 60% R.H., 36 days",1
same,Appearance,"15° C., 60% R.H., 48 days",1
same,Appearance,"25° C., 30% R.H., 0 days",1
same,Appearance,"25° C., 30% R.H., 7 days",1
same,Appearance,"25° C., 30% R.H., 15 days",1
same,Appearance,"25° C., 30% R.H., 30 days",1
same,Appearance,"25° C., 30% R.H., 60 days",1
same,Appearance,"25° C., 30% R.H., 120 days",1
same,Appearance,"25° C., 30% R.H., 360 days",1
same,Appearance,"25° C., 45% R.H., 0 days",1
same,Titre of glucosamine,"25° C., 45% R.H., 0 days",98.9%
same,Appearance,"25° C., 45% R.H., 3 days",1
same,Appearance,"25° C., 45% R.H., 6 days",1
same,Appearance,"25° C., 45% R.H., 12 days",1
same,Appearance,"25° C., 45% R.H., 24 days",1
same,Appearance,"25° C., 45% R.H., 36 days",1
same,Appearance,"25° C., 45% R.H., 48 days",1
same,Appearance,"25° C., 60% R.H., 0 hours",1
same,Titre of glucosamine,"25° C., 60% R.H., 0 hours",100.7%
same,Appearance,"25° C., 60% R.H., 2 hours",1
same,Appearance,"25° C., 60% R.H., 4 hours",1
same,Appearance,"25° C., 60% R.H., 8 hours",1
same,Appearance,"25° C., 60% R.H., 16 hours",1
same,Appearance,"25° C., 60% R.H., 24 hours",1
same,Appearance,"25° C., 60% R.H., 36 hours",1
same,Preservation after one year,"25° C., 60% relative humidity, one year",perfectly preserved
same,Colour change,"40° C., 85% relative humidity, about 12 months",slight darkening of the colour
same,Change in the subsequent 12 months,"40° C., 85% relative humidity, months 12 to 24",remains constant
same,Appearance scale value assigned in all the tests,all temperature/humidity conditions of Tables 1 to 6,1
same,Sensitivity to ambient relative humidity,even at high temperatures,practically negligible
same,Titre of glucosamine,"solid storage, 8 h",101.2%
same,Titre of glucosamine,"solid storage, 24 h",99.2%
same,Titre of glucosamine,"solid storage, 1152 h",98.4%
same,Titre of glucosamine,"solid storage, 1440 h",98.6%
same,% Inhibition of granuloma,[1]; [7],38.7%
same,Average dry weight of the granuloma (average ± s.e.),[1]; [7],94.6 ± 10.7
same,% Inhibition of granuloma,[1]; [8],58.0%
same,Average dry weight of the granuloma (average ± s.e.),[1]; [8],64.8 ± 7.0
same,LD50 at 240 h,"Acute toxicity in rats; im, intramuscular",> 3750 mg/kg
same,mortality at 240 h,Acute toxicity in rats; [5],0%
same,LD50 at 240 h,"Acute toxicity in rats; iv, endovenous",> 1880 mg/kg
same,mortality at 240 h,Acute toxicity in rats; [6],0%
same,LD50 at 240 h,Acute toxicity in rats; oral,> 6250 mg/kg
same,mortality at 240 h,"Acute toxicity in rats; oral, max. dose 6250 mg/kg",0%
same,Tissue-bound GAG synthesis,mice-embryo fibroblast [2]; 12.5 γ/ml,5490 ± 604 cpm
same,Tissue-bound GAG synthesis,mice-embryo fibroblast [2]; 62.5 γ/ml,7780 ± 612 cpm
same,Tissue-bound GAG synthesis,mice-embryo fibroblast [2]; 125 γ/ml,8320 ± 1295 cpm
same,activation at 12.5 µg/mL,"mice-embryo fibroblast [2]; Mus musculus, Fibroblast, 24 h, 12.5 γ/ml, read-out: Δ % over non-treated controls, tissue-bound GAG",17.3%
same,activation at 62.5 µg/mL,"mice-embryo fibroblast [2]; Mus musculus, Fibroblast, 24 h, 62.5 γ/ml, read-out: Δ % over non-treated controls, tissue-bound GAG",66.2%
same,activation at 125 µg/mL,"mice-embryo fibroblast [2]; Mus musculus, Fibroblast, 24 h, 125 γ/ml, read-out: Δ % over non-treated controls, tissue-bound GAG",77.8%
same,"Soluble GAG synthesis, average ± s.e.",mice-embryo fibroblast [3]; 12.5 γ/ml,6750 ± 718 cpm
same,"Soluble GAG synthesis, average ± s.e.",mice-embryo fibroblast [3]; 62.5 γ/ml,12730 ± 1201 cpm
same,"Soluble GAG synthesis, average ± s.e.",mice-embryo fibroblast [3]; 125 γ/ml,12440 ± 1473 cpm
same,activation at 12.5 µg/mL,"mice-embryo fibroblast [3]; Mus musculus, Fibroblast, 24 h, 12.5 γ/ml, read-out: Δ % over non-treated controls, soluble GAG",15.8%
same,activation at 62.5 µg/mL,"mice-embryo fibroblast [3]; Mus musculus, Fibroblast, 24 h, 62.5 γ/ml, read-out: Δ % over non-treated controls, soluble GAG",118%
same,activation at 125 µg/mL,"mice-embryo fibroblast [3]; Mus musculus, Fibroblast, 24 h, 125 γ/ml, read-out: Δ % over non-treated controls, soluble GAG",113%
same,degraded at 8760 h,physchem; 85% rh,3 to 4%
same,remaining at 36 h,physchem; Titre of glucosamine,100%
same,remaining at 1152 h,physchem; Titre of glucosamine,101%
same,Solubility (in words),"[4]; benzene, chloroform, carbon tetrachloride, methylene chloride, ligroin, ethyl ether",insoluble
same,solubility thermodynamic,"[4]; organic solvent or mixture, acetone, acetonitrile, tetrahydrofuran, dioxan (each)",< 100 µg/mL
same,solubility thermodynamic,"[4]; organic solvent or mixture, ethanol",~300 µg/mL
same,solubility thermodynamic,"[4]; organic solvent or mixture, methanol",~10000 µg/mL
same,solubility thermodynamic,[4]; water,~400000 µg/mL
same,pH of an aqueous saturated solution,pH of aqueous solution; 20° C.,3.0±0.2
same,natural pH at the concentrations used,pH of aqueous solution; injectable phial concentrations,about 3
